# “Also recorded” adds a separate entry of the source. Where two headings read alike, the source gives them in different places.
# Columns and labels:
# [1] = biological target: T1, LPA5 (Homo sapiens, UniProt Q9H1C0); experiment: Calcium-mobilization assay (FURA-2), LPA5 in B103 neuroblastoma cells; type: cell-based
# T1 construct: expressed in transfected cells; host or cells: B103 rat neuroblastoma
# Method: (§1) We investigated structure-activity relationships across species, LPAR subtypes and between Rx100 and two known process impurities encountered in manufacture: Rx103 (‘E’ isomer) and Rx200 (oleyl phosphate and impurity, which can be an Rx100 degradant along with oleyl alcohol). Rx100, Rx103, Rx200 and native LPA were investigated at different human LPAR subtypes. In addition, the activity of these compounds was evaluated at LPA2 receptors from the rhesus, rat and mouse species. Human LPA1/2/3 subtypes were transfected into mouse embryonic fibroblasts (MEF) or rat hepatoma cells (RH7777)—both of which are normally non-responsive or null to LPA. Human LPA4 was transfected into Chinese hamster ovary (CHO) cells and LPA5 into the B103 neuroblastoma cell line. […] The B103 rat neuroblastoma cell line is endogenously nonresponsive to LPA but expresses heterologous LPA5 receptors well. […] LPAR activation elicits a G-protein-mediated transient rise in intracellular calcium level that is proportional to the concentration of LPA applied. The intracellular calcium level was quantified by the calcium-selective fluorescent indicator FURA-2 (e.g., increased intracellular calcium surge=increased fluorescence).
# [2] = biological target: T2, Human LPA1 (Homo sapiens, UniProt Q92633); experiment: Calcium-mobilization assay (FURA-2), human LPA1 transfected cells; type: cell-based; settings: for EC50: EC50 [nM], mean
# T2 construct: expressed in transfected cells; host or cells: mouse embryonic fibroblasts (MEF)
# Method: as §1
# [3] = system: lysophosphatidic acid receptor (LPAR); experiment: Calcium-mobilization assay, overall statements for all species and LPAR subtypes tested; type: cell-based
# From the text: The compound was medicinally designed as an LPA analog with the goal of decreasing the otherwise rapid metabolism of LPA itself. […] These receptors are ubiquitous by tissue and in those eukaryotes investigated. […] Thus, the mechanism of drug action for GI-ARS protection is activation of the transmembrane G protein-coupled lysophosphatidic acid receptor (LPAR) and, more specifically, the LPAR2 GPCR subtype. The primary pharmacodynamics is that LPAR2 activation leads to a cascade of intracellular events that switch cells from an apoptotic to a repair/regenerative pathway.
# as §1
# Oleyl alcohol is, of course, a common component of many non-toxic ingested or dermally applied substances.
# [4] = system: male Sprague Dawley rats; experiment: Central nervous system safety pharmacology, modified Irwin battery; type: in vivo; settings: SC 1.81, 6.33 and 18.1 mg/kg; through 24 hours post-dose
# Method: Four groups of male Sprague Dawley rats (n=8/group) were administered Rx100.lysine via subcutaneous injection at doses of 0 (10 mM histidine in sterile water for Injection, USP), 1.81, 6.33 and 18.1 mg/kg as the free acid. Animals were assessed pre-dose and through 24 hours post-dose for a variety of behavioral, neurological and autonomic responses using the modified Irwin battery of assessments. Dose formulation analyses were conducted and samples ranged from 99 to 104% of target. The only effect observed was a small (0.8 to 1.5 degrees C.) decrease in body temperature noted at 2-4 hours postdose.
# [5] = Single subcutaneous dose pharmacokinetics in irradiated and unirradiated mice; type: in vivo, C57BL/6 mice; settings: single SC dose 1 mg/kg, 1 mg/kg; for AUC(0-inf): read-out: AUCINF_obs
# From the text: We performed a randomized, open-label, single-dose, four-arm, subcutaneously-administered, study of the pharmacokinetics of Rx100.Ammonia and Rx100.Lysine in irradiated and unirradiated C57BL/6 mice to evaluate the effect of salt form and irradiation on extravascular pharmacokinetics. The purpose of this study was to evaluate the pharmacokinetic parameters for two salt forms of Rx100 (Lysine and Ammonia) in healthy and PB irradiated (IR) mice when administered as a single dose. Each animal received a 1 mg/kg dose of Rx100.Lysine or Rx100.Ammonia. The animals receiving Rx100.Lysine or Rx100.Ammonia after irradiation were dosed 26±2 hours after irradiation and sampling times are relative to the time of test article dosing.
# More specifically, randomized, acclimated, C57BL/6 mice were administered Rx100.Lysine or Rx100.Ammonia (10 mM L-histidine in sterile water for injection, or 1% ethanol, 2% propylene glycol in PBS, respectively) as a single dose as indicated in Table 25.
# Blood was collected from 4 male and 4 female mice via cardiac puncture at pre-defined time points relative to test article dosing (0.5, 1, 2, 4, 6, 8, 12, 18, 24, and 48 hours) and collected into micro plasma separator vials (BD Microtainer®) containing lithium heparin. Blood was maintained on ice until centrifugation and subsequent processing. Blood draws were a terminal procedure. Plasma was frozen at −80° C. until submitted for bioanalysis. Sample collection was completed in September 2012. Samples were transferred to Covance in December 2013, and sample analysis was complete in the first quarter of 2014.
# A total of 160 male and 160 female C57BL/6 10-12 week old mice were used in this study. Animals were randomized with weight stratification into treatment groups and given a second ear tag. Animals were acclimated for 16-19 days (See below Table 26). Prior to irradiation or dosing (in non-irradiated groups), animals were weighed a second time which was the basis of the animal dose delivered.
# TLDs were used for dosimetry and confirmation of the delivered dose. TLDs were analyzed by MD Anderson and have a +/−5% accuracy. A total of 19 dosimeters were used with a mean measured dose of 15.33±0.166 Gy.
# Analysis was performed using qualified and validated Phoenix® WinNonlin® Software. The final data provided was imported into Phoenix® WinNonlin®. All data presented in the tables and figures within the results section of this report were generated using the validated Phoenix® WinNonlin® Software.
# [6] = + IR (irradiated mice), whole group (not split by gender), listed as Rx100.Lysine
# [7] = healthy mice, F, listed as Rx100.Lysine
# [8] = healthy mice, M, listed as Rx100.Lysine
# [9] = healthy mice, whole group (not split by gender), listed as Rx100.Lysine
# [10] = irradiated mice (15.6 Gy, dosed 26 ± 2 h after), F, listed as Rx100.Lysine
# [11] = irradiated mice (15.6 Gy, dosed 26 ± 2 h after), M, listed as Rx100.Lysine
# T2 sequence (Q92633 whole entry): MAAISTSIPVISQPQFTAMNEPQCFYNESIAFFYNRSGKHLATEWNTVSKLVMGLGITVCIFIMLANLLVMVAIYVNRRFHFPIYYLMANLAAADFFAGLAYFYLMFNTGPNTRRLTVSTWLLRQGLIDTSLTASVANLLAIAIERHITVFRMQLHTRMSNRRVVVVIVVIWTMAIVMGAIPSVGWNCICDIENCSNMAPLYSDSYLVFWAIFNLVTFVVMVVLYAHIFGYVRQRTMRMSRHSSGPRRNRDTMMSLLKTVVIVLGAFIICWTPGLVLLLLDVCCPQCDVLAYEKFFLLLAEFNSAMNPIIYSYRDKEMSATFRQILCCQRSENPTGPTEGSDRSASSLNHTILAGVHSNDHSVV
# T1 sequence (Q9H1C0 whole entry): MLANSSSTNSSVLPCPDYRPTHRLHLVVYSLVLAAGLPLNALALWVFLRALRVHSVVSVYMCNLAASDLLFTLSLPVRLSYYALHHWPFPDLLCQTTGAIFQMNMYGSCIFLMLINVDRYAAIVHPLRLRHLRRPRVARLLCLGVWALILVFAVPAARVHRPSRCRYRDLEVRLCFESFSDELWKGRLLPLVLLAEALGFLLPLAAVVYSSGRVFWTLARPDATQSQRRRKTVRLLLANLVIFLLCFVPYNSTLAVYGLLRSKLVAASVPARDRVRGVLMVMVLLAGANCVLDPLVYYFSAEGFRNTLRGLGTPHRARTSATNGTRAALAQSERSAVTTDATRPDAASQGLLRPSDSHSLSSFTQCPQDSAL
structure (smiles),measurement,setting,value
"CCCCCCCC/C=C\CCCCCCCCOP(O)(O)=S [Rx100, (Z)—O-octadec-9-en-1-yl O,O-dihydrogen phosphorothioate]",EC50,[1],100 nM
same,Emax,"[1]; B103, read-out: Emax (% of LPA)",104%
same,EC50,"[2]; LPA1 DKO MEF, human",273 nM
same,EC50,"[2]; LPA1 RH7777, human",1030 nM
same,Emax,"[2]; RH7777, read-out: Emax (% of LPA)",69%
same,Emax,[2]; read-out: Emax (% of LPA),70%
same,LPAR activation,[3],pan lysophosphatidic acid receptor (LPAR) agonist; also recorded: substantially more in vitro activity
"CCCCCCCC/C=C\CCCCCCCCOP(O)(O)=S [Rx100.L-Lysine, (Z)—O-octadec-9-en-1-yl O,O-dihydrogen phosphorothioate]",other parameters of the modified Irwin battery,[4],No other effects
same,Cmax,"[5]; IR males, listed as Rx100.Lysine",299 ng/mL
same,AUC(0-inf),"[5]; both sexes, C57BL/6, mouse, plasma, sc, + IR (irradiated mice), whole group (not split by gender)",1210 ng·h/mL
same,Cmax,"[5]; both sexes, C57BL/6, mouse, plasma, sc, + IR (irradiated mice), whole group (not split by gender), read-out: Cmax",323 ng/mL
same,AUC(0-inf),"[5]; both sexes, C57BL/6, mouse, plasma, sc, healthy mice, whole group (not split by gender)",1660 ng·h/mL
same,Cmax,"[5]; both sexes, C57BL/6, mouse, plasma, sc, healthy mice, whole group (not split by gender), read-out: Cmax",512 ng/mL
same,AUC,"[5]; female, C57BL/6, mouse, plasma, sc, IR females, read-out: AUC",1240 ng·h/mL
same,Cmax,"[5]; female, C57BL/6, mouse, plasma, sc, IR females, read-out: Cmax",355 ng/mL
same,Cmax,"[5]; female, C57BL/6, mouse, plasma, sc, healthy females, read-out: Cmax",455 ng/mL
same,AUC,"[5]; female, C57BL/6, mouse, plasma, sc, healthy females, read-out: exposure (AUC)",1590 ng·h/mL
same,AUC(0-inf),"[5]; female, C57BL/6, mouse, plasma, sc, healthy mice, F",1590 ng·h/mL
same,Cmax,"[5]; female, C57BL/6, mouse, plasma, sc, healthy mice, F, read-out: Cmax",454 ng/mL
same,AUC(0-inf),"[5]; female, C57BL/6, mouse, plasma, sc, irradiated mice (15.6 Gy, dosed 26 ± 2 h after), F",1240 ng·h/mL
same,Cmax,"[5]; female, C57BL/6, mouse, plasma, sc, irradiated mice (15.6 Gy, dosed 26 ± 2 h after), F, read-out: Cmax",355 ng/mL
same,AUC,"[5]; male, C57BL/6, mouse, plasma, sc, IR males, read-out: AUC",1170 ng·h/mL
same,AUC,"[5]; male, C57BL/6, mouse, plasma, sc, healthy males, read-out: AUC",1750 ng·h/mL
same,Cmax,"[5]; male, C57BL/6, mouse, plasma, sc, healthy males, read-out: Cmax",570 ng/mL
same,AUC(0-inf),"[5]; male, C57BL/6, mouse, plasma, sc, healthy mice, M",1750 ng·h/mL
same,Cmax,"[5]; male, C57BL/6, mouse, plasma, sc, healthy mice, M, read-out: Cmax",570 ng/mL
same,AUC(0-inf),"[5]; male, C57BL/6, mouse, plasma, sc, irradiated mice (15.6 Gy, dosed 26 ± 2 h after), M",1170 ng·h/mL
same,CLss_F,[5]; [6],13.822 mL/min/kg
same,HL_Lambda_z,[5]; [6],1.44 h
same,Vz_F,[5]; [6],1.72242 L/kg
same,CLss_F,[5]; [7],10.462 mL/min/kg
same,HL_Lambda_z,[5]; [7],1.84 h
same,Vz_F,[5]; [7],1.66432 L/kg
same,CLss_F,[5]; [8],9.5183 mL/min/kg
same,HL_Lambda_z,[5]; [8],1.91 h
same,Vz_F,[5]; [8],1.57087 L/kg
same,CLss_F,[5]; [9],10.032 mL/min/kg
same,HL_Lambda_z,[5]; [9],1.16 h
same,Vz_F,[5]; [9],1.00622 L/kg
same,CLss_F,[5]; [10],13.466 mL/min/kg
same,HL_Lambda_z,[5]; [10],1.87 h
same,Vz_F,[5]; [10],2.17384 L/kg
same,CLss_F,[5]; [11],14.264 mL/min/kg
same,Cmax,[5]; [11],298.75 ng/mL
same,HL_Lambda_z,[5]; [11],1.32 h
same,Vz_F,[5]; [11],1.62547 L/kg
